Source: US7323469B2, “7H-pyrrolo[2,3-d]pyrimidine derivatives” (Novartis AG, priority 2001, dated 2008)

Experiments:
EGF-R (HER-1) = molecular target: T1, EGF-R (HER-1) (Homo sapiens, UniProt P00533); assay: Inhibition of EGF-R tyrosine kinase activity (recombinant intracellular domain, EGF-R ICD); assay type: biochemical
T1 construct: using the recombinant intracellular domain of the EGF-receptor [EGF-R ICD
Procedure: J. Biochem. 207, 265-275 (1992)].
(§1) Inhibition of the Tyrosine Kinase Activity of EGF-R (HER-1), ErbB-2 (HER-2) and VEGF Receptor (KDR)
(§2) The inhibition tests are carried out as described above.

VEGF Receptor (KDR) = VEGF Receptor (KDR) (Homo sapiens, UniProt P35968); assay: Inhibition of KDR tyrosine kinase activity; assay type: biochemical
Procedure: The compounds of the present invention are therefore very effective dual inhibitors of EGF- and VEGF-receptor family members. For inhibition of KDR and Flt-1 and inhibition of growth factor-induced proliferation of HUVECS see J. Wood et al., Cancer Res. 60, 2178-2189 (2000). The compounds of formula I inhibit e.g. the KDR tyrosine kinase activity with an IC50 of from about 1 nM to about 1 μM, especially from about 5 nM to about 0.5 μM.
as §1, §2

ErbB-2 (HER-2) = ErbB-2 (HER-2) (Homo sapiens, UniProt P04626); assay: Inhibition of ErbB-2 tyrosine kinase activity; assay type: biochemical
Procedure: The inhibitory activity (IC50) is approximately in the range of 0.001 to 0.5 μM. The inhibition of ErbB-2 tyrosine kinase (HER-2) can be determined, for example, analogously to the method used for EGF-R protein tyrosine kinase [see C. House et al., Europ. J. Biochem. 140, 363-367 (1984)]. The ErbB-2 kinase can be isolated, and its activity determined, by means of protocols known per se, for example in accordance with T. Akiyama et al., Science 232, 1644 (1986).
as §1, §2

Chain of VEGF Receptor (KDR) (P35968 20-1356): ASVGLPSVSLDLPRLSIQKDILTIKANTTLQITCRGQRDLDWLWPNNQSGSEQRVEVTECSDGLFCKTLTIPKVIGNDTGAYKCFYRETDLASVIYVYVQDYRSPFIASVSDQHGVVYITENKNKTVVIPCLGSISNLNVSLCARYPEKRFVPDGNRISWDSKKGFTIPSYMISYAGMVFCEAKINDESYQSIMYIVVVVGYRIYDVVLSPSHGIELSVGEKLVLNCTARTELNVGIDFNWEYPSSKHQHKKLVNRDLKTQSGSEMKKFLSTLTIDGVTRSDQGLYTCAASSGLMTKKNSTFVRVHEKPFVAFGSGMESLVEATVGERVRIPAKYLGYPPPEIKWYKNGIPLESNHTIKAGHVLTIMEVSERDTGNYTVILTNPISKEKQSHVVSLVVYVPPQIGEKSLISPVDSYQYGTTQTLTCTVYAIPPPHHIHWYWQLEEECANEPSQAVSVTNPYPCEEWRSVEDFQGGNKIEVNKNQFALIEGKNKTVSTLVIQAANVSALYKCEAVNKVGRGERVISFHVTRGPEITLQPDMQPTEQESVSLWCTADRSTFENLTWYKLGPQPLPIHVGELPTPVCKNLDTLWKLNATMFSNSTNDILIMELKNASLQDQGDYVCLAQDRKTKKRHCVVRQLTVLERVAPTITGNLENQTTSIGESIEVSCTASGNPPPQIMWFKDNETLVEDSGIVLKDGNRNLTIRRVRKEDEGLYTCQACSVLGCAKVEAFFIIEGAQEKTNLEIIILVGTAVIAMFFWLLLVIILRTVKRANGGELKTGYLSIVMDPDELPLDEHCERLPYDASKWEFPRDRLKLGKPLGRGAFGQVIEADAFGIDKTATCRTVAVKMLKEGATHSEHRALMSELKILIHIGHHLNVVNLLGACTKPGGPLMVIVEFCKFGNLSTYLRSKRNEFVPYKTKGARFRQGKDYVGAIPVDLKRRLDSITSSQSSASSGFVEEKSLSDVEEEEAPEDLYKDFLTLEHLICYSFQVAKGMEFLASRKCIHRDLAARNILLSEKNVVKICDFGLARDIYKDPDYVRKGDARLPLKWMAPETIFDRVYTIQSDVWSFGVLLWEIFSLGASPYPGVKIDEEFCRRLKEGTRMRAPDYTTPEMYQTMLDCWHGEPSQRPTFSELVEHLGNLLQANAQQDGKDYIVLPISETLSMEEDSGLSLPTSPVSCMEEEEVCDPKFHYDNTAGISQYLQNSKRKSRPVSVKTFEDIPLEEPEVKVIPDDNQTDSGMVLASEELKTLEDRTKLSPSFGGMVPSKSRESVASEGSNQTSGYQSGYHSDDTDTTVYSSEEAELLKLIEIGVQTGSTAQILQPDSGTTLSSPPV
T1 sequence (P00533 669-1210 limits assumed): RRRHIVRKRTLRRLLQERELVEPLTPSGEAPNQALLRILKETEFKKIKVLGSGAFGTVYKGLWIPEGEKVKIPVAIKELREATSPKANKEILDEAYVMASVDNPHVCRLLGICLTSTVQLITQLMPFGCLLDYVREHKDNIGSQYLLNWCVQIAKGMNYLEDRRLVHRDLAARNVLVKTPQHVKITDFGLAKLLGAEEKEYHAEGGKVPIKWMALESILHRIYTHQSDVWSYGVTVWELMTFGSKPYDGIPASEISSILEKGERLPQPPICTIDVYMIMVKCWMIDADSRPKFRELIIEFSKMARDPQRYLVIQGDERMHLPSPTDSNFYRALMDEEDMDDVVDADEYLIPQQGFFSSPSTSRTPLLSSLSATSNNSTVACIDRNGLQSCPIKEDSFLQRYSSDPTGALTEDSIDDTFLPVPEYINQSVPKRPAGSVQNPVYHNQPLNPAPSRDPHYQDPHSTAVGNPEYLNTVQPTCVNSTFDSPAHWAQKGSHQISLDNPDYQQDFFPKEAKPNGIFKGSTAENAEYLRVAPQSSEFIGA
Chain of ErbB-2 (HER-2) (P04626 23-1255): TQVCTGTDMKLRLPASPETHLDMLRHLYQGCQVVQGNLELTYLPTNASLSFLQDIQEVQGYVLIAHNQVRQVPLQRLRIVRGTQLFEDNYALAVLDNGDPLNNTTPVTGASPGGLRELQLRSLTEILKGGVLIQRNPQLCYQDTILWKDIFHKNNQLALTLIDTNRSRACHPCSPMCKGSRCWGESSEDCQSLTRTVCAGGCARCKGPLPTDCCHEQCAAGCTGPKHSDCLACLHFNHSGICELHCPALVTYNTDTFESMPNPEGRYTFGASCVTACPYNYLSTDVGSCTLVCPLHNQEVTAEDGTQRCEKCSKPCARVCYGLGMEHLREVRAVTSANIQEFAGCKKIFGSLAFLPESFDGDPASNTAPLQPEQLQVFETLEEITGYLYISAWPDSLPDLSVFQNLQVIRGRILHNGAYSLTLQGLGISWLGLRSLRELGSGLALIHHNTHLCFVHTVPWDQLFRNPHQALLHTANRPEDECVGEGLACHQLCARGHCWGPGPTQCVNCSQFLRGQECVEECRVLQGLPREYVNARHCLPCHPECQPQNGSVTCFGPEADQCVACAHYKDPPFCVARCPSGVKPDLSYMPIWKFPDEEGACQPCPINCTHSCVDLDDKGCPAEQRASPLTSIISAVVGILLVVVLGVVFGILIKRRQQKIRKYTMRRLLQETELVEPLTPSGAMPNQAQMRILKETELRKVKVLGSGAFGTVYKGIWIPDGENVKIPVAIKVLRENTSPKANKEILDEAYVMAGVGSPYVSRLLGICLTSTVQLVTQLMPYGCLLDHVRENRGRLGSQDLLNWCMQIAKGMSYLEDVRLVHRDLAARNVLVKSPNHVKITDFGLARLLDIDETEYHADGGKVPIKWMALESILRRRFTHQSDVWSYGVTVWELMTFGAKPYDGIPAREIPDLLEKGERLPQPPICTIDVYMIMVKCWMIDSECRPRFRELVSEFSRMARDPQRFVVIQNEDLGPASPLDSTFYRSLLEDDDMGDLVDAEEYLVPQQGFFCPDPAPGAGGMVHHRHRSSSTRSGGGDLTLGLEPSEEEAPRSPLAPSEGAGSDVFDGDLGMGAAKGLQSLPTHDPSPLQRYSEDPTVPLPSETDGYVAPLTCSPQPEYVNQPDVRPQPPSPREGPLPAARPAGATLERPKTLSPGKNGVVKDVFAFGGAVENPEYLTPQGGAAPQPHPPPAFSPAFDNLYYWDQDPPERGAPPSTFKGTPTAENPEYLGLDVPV

| Structure (SMILES) | IC50 (EGF-R (HER-1)) [nM] | IC50 (VEGF Receptor (KDR)) [nM] | IC50 (ErbB-2 (HER-2)) [nM] | melting point [°C] |
| --- | --- | --- | --- | --- |
| CN(C)Cc1ccc(-c2cc3c(Nc4ccc(=O)[nH]c4)ncnc3[nH]2)cc1 [Example 116, 5-[6-(4-Dimethylaminomethyl-phenyl)-7H-pyrrolo[2,3-d]pyrimidin-4-ylamino]-1H-pyridin-2-one] | 39 | 15.5 | 15.5 | – |
| O=C(CN1CCOCC1)NCc1ccc(-c2cc3c(Nc4ccc(F)c(Cl)c4)ncnc3[nH]2)cc1 [Example 48, N-{4-[4-(3-Chloro-4-fluoro-phenylamino)-7H-pyrrolo[2,3-d]pyrimidin-6-yl]-benzyl}-2-morpholin-4-yl-acetamide] | 5.7 | 58 | 7.5 | 272 to 275 |
| CCN1CCN(Cc2ccc(-c3cc4c(Nc5ccc(F)c(Cl)c5)ncnc4[nH]3)cc2)CC1 [Example 3, (3-Chloro-4-fluoro-phenyl)-{6-[4-(4-ethyl-piperazin-1-ylmethyl)-phenyl]-7H-pyrrolo[2,3-d]pyrimidin-4-yl}-amine] | 3.1 | 10.7 | 8 | 266 to 268 |
| C[C@@H](Nc1ncnc2[nH]c(-c3ccc(CN(C)C)cc3)cc12)c1ccccc1 [Example 13, [6-(4-Dimethylamino-methyl-phenyl)-7H-pyrrolo[2,3-d]pyrimidin-4-yl]-((R)-1-phenyl-ethyl)-amine] | 6 | 88 | 5 | – |
| CN1CCN(Cc2ccc(-c3cc4c(NCc5ccccc5Cl)ncnc4[nH]3)cc2)CC1 [Example 94, (2-Chloro-benzyl)-{6-[4-(4-methyl-piperazin-1-ylmethyl)-phenyl]-7H-pyrrolo[2,3-d]pyrimidin-4-yl}-amine] | 1.8 | 42 | 16 | 267 to 269 |
| C[C@@H](Nc1ncnc2[nH]c(-c3ccc(CN4CCCC4)cc3)cc12)c1ccccc1 [Example 12, ((R)-1-Phenyl-ethyl)-[6-(4-pyrrolidin-1-ylmethyl-phenyl)-7H-pyrrolo[2,3-d]pyrimidin-4-yl]-amine] | 4.7 | 139 | 5 | 254 to 256 |
| CCN1CCN(Cc2ccc(-c3cc4c(N[C@H](C)c5ccccc5)ncnc4[nH]3)cc2)CC1 [Example 11, {6-[4-(4-Ethyl-piperazin-1-ylmethyl)-phenyl]-7H-pyrrolo[2,3-d]pyrimidin-4-yl}-((R)-1-phenyl-ethyl)-amine] | – | 49.7 | 5 | – |
| C[C@@H](Nc1ncnc2[nH]c(-c3ccc(CNCCN4CCOCC4)cc3)cc12)c1ccccc1 [Example 16a, (6-{4-[(2-Morpholin-4-yl-ethylamino)-methyl]-phenyl}-7H-pyrrolo[2,3-d]pyrimidin-4-yl)-((R)-1-phenyl-ethyl)-amine] | 1.2 | 61 | 16 | 222 to 224 |
| CCN(CC)Cc1ccc(-c2cc3c(N[C@H](C)c4ccccc4)ncnc3[nH]2)cc1 [Example 10, [6-(4-Diethylamino-methyl-phenyl)-7H-pyrrolo[2,3-d]pyrimidin-4-yl]-((R)-1-phenyl-ethyl)-amine] | – | 29.3 | 9 | 246 to 248 |
| C[C@@H](Nc1ncnc2[nH]c(-c3ccc(CNC(=O)CN4CCN(C)CC4)cc3)cc12)c1ccccc1 [Example 43, 2-(4-Methyl-piperazin-1-yl)-N-{4-[4-((R)-1-phenyl-ethylamino)-7H-pyrrolo[2,3-d]pyrimidin-6-yl]-benzyl}-acetamide] | 5 | 51.5 | 11.5 | 150 to 152 |
| Fc1ccc(Nc2ncnc3[nH]c(-c4ccc(CN5CCCCC5)cc4)cc23)cc1Cl [Example 6, (3-Chloro-4-fluoro-phenyl)-[6-(4-piperidin-1-ylmethyl-phenyl)-7H-pyrrolo[2,3-d]pyrimidin-4-yl]-amine] | 7 | 12.7 | 5 | 267 to 269 |
| Cc1cccc(CNc2ncnc3[nH]c(-c4ccc(CN(C)C)cc4)cc23)c1 [107f^] | 2.5 | 19 | 45 | – |
| C[C@@H](Nc1ncnc2[nH]c(-c3ccc(CN4CCCCC4)cc3)cc12)c1ccccc1 [Example 14, ((R)-1-Phenyl-ethyl)-[6-(4-piperidin-1-ylmethyl-phenyl)-7H-pyrrolo[2,3-d]pyrimidin-4-yl]-amine] | 6.3 | 92.7 | 8.5 | 246 to 248 |
| CN1CCN(CC(=O)NCc2ccc(-c3cc4c(Nc5ccc(OCc6ccccc6)cc5)ncnc4[nH]3)cc2)CC1 [Example 52, N-{4-[4-(4-Benzyloxy-phenylamino)-7H-pyrrolo[2,3-d]pyrimidin-6-yl]-benzyl}-2-(4-methyl-piperazin-1-yl)-acetamide] | 15.7 | 125 | 14 | 232 to 234 |
| Clc1cccc(CNc2ncnc3[nH]c(-c4ccc(CN5CCOCC5)cc4)cc23)c1 [Example 86, (3-Chloro-benzyl)-[6-(4-morpholin-4-ylmethyl-phenyl)-7H-pyrrolo[2,3-d]pyrimidin-4-yl]-amine] | 5.5 | 105 | 16 | 253 to 254.5 |
| Fc1ccc(Nc2ncnc3[nH]c(-c4ccc(CNC5CCOCC5)cc4)cc23)cc1Cl [Example 8a, (3-Chloro-4-fluoro-phenyl)-(6-{4-[(tetrahydro-pyran-4-ylamino)-methyl]-phenyl}-7H-pyrrolo[2,3-d]pyrimidin-4-yl)-amine] | 2.4 | 17 | 9.4 | 288 to 290 |
| C[C@@H](Nc1ncnc2[nH]c(-c3ccc(CN4CCOCC4)cc3)cc12)c1ccccc1 [Example 15, [6-(4-Morpholin-4-ylmethyl-phenyl)-7H-pyrrolo[2,3-d]pyrimidin-4-yl]-((R)-1-phenyl-ethyl)-amine] | 5 | 49.3 | 6.5 | 263 to 265 |
| CCN1CCN(Cc2ccc(-c3cc4c(NCc5ccnc(OC)c5)ncnc4[nH]3)cc2)CC1 [Example 122, (2-Methoxy-pyridin-4-ylmethyl)-{6-[4-(4-ethyl-piperazin-1-ylmethyl)-phenyl]-7H-pyrrolo[2,3-d]pyrimidin-4-yl}-amine] | – | – | – | 210 to 212 |
| Cc1cccc(CNc2ncnc3[nH]c(-c4ccc(CN5CCCC5)cc4)cc23)c1 [Example 107h, (3-Methyl-benzyl)-[6-(4-pyrrolidin-1-ylmethyl-phenyl)-7H-pyrrolo[2,3-d]pyrimidin-4-yl]-amine] | – | – | – | 241 to 243 |
| C[C@@H](Nc1ncnc2[nH]c(-c3ccc(CNC(=O)CCCN(C)C)cc3)cc12)c1ccccc1 [Example 56, 4-Dimethylamino-N-{4-[4-((R)-1-phenyl-ethyl-amino)-7H-pyrrolo[2,3-d]pyrimidin-6-yl]-benzyl}-butyramide] | – | – | – | 195 to 203 |
| CC1CN(Cc2ccc(-c3cc4c(Nc5ccc(OCc6ccccc6)cc5)ncnc4[nH]3)cc2)CC(C)N1 (stereo not drawn) [Example 24, (4-Benzyloxy-phenyl)-{6-[4-(3,5-dimethyl-piperazin-1-ylmethyl)-phenyl]-7H-pyrrolo[2,3-d]pyrimidin-4-yl}-amine] | – | – | – | 269 to 271 |
